Where two headings read alike, the source gives them in different places.
Experiments:
72 kDa gelatinase [1] = target: T1, 72 kDa gelatinase (Homo sapiens, UniProt P08253); settings: read-out: In vitro inhibitory activity IC50, Gelatinase A (MMP-2); 37° C., 16 hours; enzyme from RPMI-7951 cells
T1 sequence (P08253 110-660): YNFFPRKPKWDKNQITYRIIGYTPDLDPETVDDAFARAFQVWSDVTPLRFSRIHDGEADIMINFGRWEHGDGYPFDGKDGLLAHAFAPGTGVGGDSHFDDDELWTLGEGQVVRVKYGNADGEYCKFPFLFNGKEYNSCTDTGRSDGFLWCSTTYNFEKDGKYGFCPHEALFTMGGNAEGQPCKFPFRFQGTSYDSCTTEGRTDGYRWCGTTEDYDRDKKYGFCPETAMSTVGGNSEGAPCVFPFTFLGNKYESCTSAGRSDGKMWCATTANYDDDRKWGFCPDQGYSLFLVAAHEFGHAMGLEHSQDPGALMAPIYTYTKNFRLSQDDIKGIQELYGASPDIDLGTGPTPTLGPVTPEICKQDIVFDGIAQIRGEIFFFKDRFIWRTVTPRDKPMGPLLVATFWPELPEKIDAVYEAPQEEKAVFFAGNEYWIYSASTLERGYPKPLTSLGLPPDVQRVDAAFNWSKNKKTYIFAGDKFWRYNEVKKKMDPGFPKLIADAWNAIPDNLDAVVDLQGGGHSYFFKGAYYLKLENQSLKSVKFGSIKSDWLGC

[2] = target: T2, human fibroblast collagenase (Homo sapiens, UniProt P03956); assay: Inhibition of human fibroblast collagenase (MMP-1), 14C-acetylated collagen; format: biochemical; settings: for inhibition at 100 µM: read-out: % I (inhibition), Fib. Collag. (MMP-1); for IC50: 37° C., 16 hours, pH 7.5, read-out: In vitro inhibitory activity IC50, Fib. Collag. (MMP-1)
T2 sequence (P03956 100-469): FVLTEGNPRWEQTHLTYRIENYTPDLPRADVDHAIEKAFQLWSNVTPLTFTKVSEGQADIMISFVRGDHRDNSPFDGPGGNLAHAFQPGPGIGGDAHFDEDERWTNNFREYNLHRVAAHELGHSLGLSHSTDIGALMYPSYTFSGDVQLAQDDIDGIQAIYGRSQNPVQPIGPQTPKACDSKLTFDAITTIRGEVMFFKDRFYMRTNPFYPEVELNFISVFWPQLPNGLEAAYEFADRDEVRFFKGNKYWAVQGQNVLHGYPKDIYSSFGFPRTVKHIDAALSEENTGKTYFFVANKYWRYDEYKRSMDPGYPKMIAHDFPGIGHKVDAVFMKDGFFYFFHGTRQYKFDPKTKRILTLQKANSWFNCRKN

[3] = target: T3, recombinant matrilysin (PUMP-1) (Homo sapiens, UniProt P09237); assay: Inhibition of recombinant matrilysin (PUMP-1, MMP-7), 14C-acetylated casein; format: biochemical; settings: 37° C., 16 hours, pH 7.6; read-out: In vitro inhibitory activity IC50, Matrilysin (MMP-7)
T3 sequence (P09237 95-267): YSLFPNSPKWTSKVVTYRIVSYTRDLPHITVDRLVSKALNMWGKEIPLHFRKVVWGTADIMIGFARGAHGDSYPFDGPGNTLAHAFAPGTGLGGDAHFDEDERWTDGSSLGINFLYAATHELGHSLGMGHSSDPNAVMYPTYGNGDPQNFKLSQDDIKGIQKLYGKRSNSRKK

stromelysin-1 [4] = target: T4, stromelysin-1 (Homo sapiens, UniProt P08254); settings: read-out: In vitro inhibitory activity IC50, Stromelysin-1 (MMP-3); 37° C., 16 hours, pH 7.5
stromelysin-1 [5] = target: T4, stromelysin-1; assay: biochemical
72 kDa gelatinase [6] = target: T1, 72 kDa gelatinase; assay: biochemical

T4 sequence (P08254 100-477, species assumed): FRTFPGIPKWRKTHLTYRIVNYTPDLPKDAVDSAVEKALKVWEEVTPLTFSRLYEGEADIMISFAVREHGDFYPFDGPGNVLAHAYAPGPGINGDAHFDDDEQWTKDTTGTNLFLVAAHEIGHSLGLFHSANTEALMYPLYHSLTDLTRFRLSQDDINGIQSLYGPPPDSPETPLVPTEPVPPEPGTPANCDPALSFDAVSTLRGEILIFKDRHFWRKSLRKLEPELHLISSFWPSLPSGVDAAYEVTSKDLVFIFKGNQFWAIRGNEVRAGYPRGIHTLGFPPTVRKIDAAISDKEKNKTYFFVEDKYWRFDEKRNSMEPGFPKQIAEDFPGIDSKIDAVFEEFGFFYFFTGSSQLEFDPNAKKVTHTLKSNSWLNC

Row | Structure (SMILES) | IC50 [3] [nM] | IC50 (stromelysin-1 [5]) [nM] | IC50 (72 kDa gelatinase [6]) [nM] | IC50 [2] [nM] | IC50 (72 kDa gelatinase [1]) [nM] | inhibition at 100 µM [2] [%] | IC50 (stromelysin-1 [4]) [nM] | inhibition at 100 µM (72 kDa gelatinase [6]; read-out: % I (inhibition), Gelatinase A (MMP-2)) [%]
1 | CC(C)(C)[C@H](NC(=O)[C@H](C/C=C/c1ccccc1)[C@H](O)C(=O)NO)C(=O)NC(c1ccccc1)c1ccccc1 [Example 9, N^4-[1S-(Benzhydryl-carbamoyl)-2,2-dimethyl-propyl]-2S,N^1-dihydroxy-3R-(3-phenyl-allyl)-succinamide] | 500 |  |  |  | 40000 | 30 | 800 | 
2 | CC(C)(C)[C@H](NC(=O)[C@H](CCCc1ccccc1)[C@H](O)C(=O)NO)C(=O)NC(c1ccccc1)c1ccccc1 [Example 10, N^4-[1S-(Benzhydryl-carbamoyl)-2,2-dimethyl-propyl]-2S,N^1-dihydroxy-3R-(3-phenyl-propyl)-succinamide] | 1000 |  |  | 10000 |  |  |  | 
3 | C=CC[C@H](C(=O)NO)[C@@H](CC(C)C)C(=O)N[C@H](C(=O)NC)C(C)(C)C [Comparator 2, 2S-Allyl-N^4-(2,2-dimethyl-1S-methylcarbamoyl-propyl)-N^1-hydroxy-3R-isobutyl-succinamide, reference compound] | 20 |  |  |  |  |  |  | 
4 | CO[C@H](C(=O)O)[C@@H](CC(C)C)C(=O)N[C@H](C(=O)NC(c1ccccc1)c1ccccc1)C(C)(C)O [Example 7, N^4-[1S-(Benzhydryl-carbamoyl)-2-hydroxy-2-methyl-propylcarbamoyl]-2S-methoxy-5R-methyl-hexanoic acid] |  | 20000 |  |  |  | 40 |  | 50
5 | CC(C)C[C@@H](C(=O)N[C@H](C(=O)NC1c2ccccc2-c2ccccc21)C(C)(C)C)[C@H](O)C(=O)NO [Example 2, N^4-[1S-(9H-Fluoren-9-ylcarbamoyl)-2,2-dimethyl-propyl]-2S,N^1-dihydroxy-3R-isobutyl-succinamide] | 70 | 200 | 17000 | 2000 |  |  |  | 
6 | C=CC[C@H](C(=O)NO)[C@@H](CCCCCCCC)C(=O)N[C@H](C(=O)NC(c1ccccc1)c1ccccc1)C(C)(C)C [Example 13, 2S-Allyl-N^4-[1S-(benzhydryl-carbamoyl)-2,2-dimethyl-propyl]-N^1-hydroxy-3R-octyl-succinamide] | 400 | 60 | 20000 | 30000 |  |  |  | 
7 | C=CC[C@H](C(=O)NO)[C@@H](CC(C)C)C(=O)N[C@H](C(=O)NC(c1ccccc1)c1ccccc1)C(C)(C)C [Example 12, 2S-Allyl-N^4-[1S-(benzhydryl-carbamoyl)-2,2-dimethyl-propyl]-N^1-hydroxy-3R-isobutyl-succinamide] | 30 | 80 | 40000 | 800 |  |  |  | 
8 | CC(C)C[C@@H](C(=O)N[C@H](C(=O)NC(c1ccccn1)c1ccccn1)C(C)(C)C)[C@H](O)C(=O)NO [Example 11, N^4 -{1S-[(Di-pyridin-2-yl-methyl)-carbamoyl]-2,2-dimethyl-propyl}-2S,N^1-dihydroxy-3R-isobutyl-succinamide] | 20 | 200 | 1000 | 300 |  |  |  | 

The next lines start with results.

Row | IC50 [3] [nM] | IC50 (stromelysin-1 [5]) [nM] | IC50 (72 kDa gelatinase [6]) [nM] | IC50 [2] [nM] | Structure (SMILES) | IC50 (72 kDa gelatinase [1]) [nM] | inhibition at 100 µM [2] [%] | IC50 (stromelysin-1 [4]) [nM] | inhibition at 100 µM (72 kDa gelatinase [6]; read-out: % I (inhibition), Gelatinase A (MMP-2)) [%]
9 | 9 | 20 | 1000 | 700 | CO[C@H](C(=O)NO)[C@@H](CC(C)C)C(=O)N[C@H](C(=O)NC(c1ccccc1)c1ccccc1)C(C)(C)O [Example 8] |  |  |  | 
10 | 9 | 60 | 500 | 400 | CC(C)C[C@@H](C(=O)N[C@H](C(=O)NC(c1ccccc1)c1ccc(F)cc1)C(C)(C)C)[C@H](O)C(=O)NO (stereo partly drawn) [Example 4, N^4-(1S-{[(4-Fluoro-phenyl)-phenyl-methyl]-carbamoyl}-2,2-dimethyl-propyl)-2S,N^1-dihydroxy-3-isobutyl-succinamide] |  |  |  | 
11 | 4 | 50 | 3000 | 600 | CC(C)C[C@@H](C(=O)N[C@H](C(=O)NC(c1ccccc1)c1ccccc1)C(C)(C)C)[C@H](O)C(=O)NO [Example 1, N^4-[1S-(Benzhydryl-carbamoyl)-2,2-dimethyl-propyl]-2S,N^1-dihydroxy-3R-isobutyl-succinamide] |  |  |  | 
12 | 9 | 100 | 600 | 700 | CC(C)C[C@@H](C(=O)N[C@H](C(=O)NC(c1ccccc1)c1ccccc1F)C(C)(C)C)[C@H](O)C(=O)NO (stereo partly drawn) [Example 5, N^4-(1S-{[(2-Fluoro-phenyl)-phenyl-methyl]-carbamoyl}-2,2-dimethyl-propyl)-2S,N^1-dihydroxy-3R-isobutyl-succinamide] |  |  |  | 
13 | 10 | 200 | 2000 | 400 | CC(C)C[C@@H](C(=O)N[C@H](C(=O)NC(c1ccccc1)c1ccc(Cl)cc1)C(C)(C)C)[C@H](O)C(=O)NO (stereo partly drawn) [Example 3, N^4-(1S-{[(4-Chloro-phenyl)-phenyl-methyl]-carbamoyl}-2,2-dimethyl-propyl)-2R,N^1-dihydroxy-3R-isobutyl-succinamide] |  |  |  | 
14 | 15 | 200 | 600 | 2000 | CC(C)C[C@@H](C(=O)N[C@H](C(=O)NC(c1ccccc1)c1ccccc1)C(C)(C)O)[C@H](O)C(=O)NO [Example 6, N^4-[1S-(Benzhydryl-carbamoyl)-2-hydroxy-2-methyl-propyl]-2S, N^1-dihydroxy-3R-isobutyl-succinamide] |  |  |  | 
